Columns and labels:
[1] = molecular target: T1, RARα (Homo sapiens, UniProt P10276); experiment: co-transfection assay, agonist activity on RARα; format: cell-based; set-up: expressed in transfected cells; host or cells: CV-1 cells (African green monkey kidney); conditions: CV-1 cells; read-out: EC50 agonist potency, RARα
T1 sequence (P10276 1-462): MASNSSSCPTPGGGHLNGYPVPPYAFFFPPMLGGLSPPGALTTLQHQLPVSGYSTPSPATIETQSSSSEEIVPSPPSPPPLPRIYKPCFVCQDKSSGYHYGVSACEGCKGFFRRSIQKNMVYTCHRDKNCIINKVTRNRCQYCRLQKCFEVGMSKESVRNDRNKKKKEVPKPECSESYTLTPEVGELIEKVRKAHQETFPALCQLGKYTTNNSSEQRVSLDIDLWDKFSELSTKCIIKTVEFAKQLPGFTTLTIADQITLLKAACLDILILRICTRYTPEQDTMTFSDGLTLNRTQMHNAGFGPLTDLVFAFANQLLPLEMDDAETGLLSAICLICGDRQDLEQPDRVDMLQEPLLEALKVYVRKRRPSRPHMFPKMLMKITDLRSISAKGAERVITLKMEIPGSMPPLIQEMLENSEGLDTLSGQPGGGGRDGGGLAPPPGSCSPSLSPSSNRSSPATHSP
From the text: This assay is described in further detail in U.S. Pat. Nos. 4,981,784 and 5,071,773, the disclosures of which are incorporated herein by reference.
In the co-transfection assay, a cloned cDNA for an IR (e.g., human RARα:, RARβ, RXRγ) under the control of a constitutive promoter (e.g., the SV 40 promoter) is introduced by transfection (a procedure to induce cells to take up foreign genes) into a background cell substantially devoid of endogenous IRs. This introduced gene directs the recipient cells to make the IR protein of interest. A second gene is also introduced (co-transfected) into the same cells in conjunction with the IR gene. This second gene, comprising the cDNA for a reporter protein, such as firefly luciferase (LUC), is controlled by an appropriate hormone responsive promoter containing a hormone response element (HRE). This reporter plasmid functions as a reporter for the transcription-modulating activity of the target IR. Thus, the reporter acts as a surrogate for the products (mRNA then protein) normally expressed by a gene under control of the target receptor and its native hormone.
The co-transfection assay can detect small molecule agonists or antagonists of target IRs. Exposing the transfected cells to an agonist ligand compound increases reporter activity in the transfected cells. This activity can be conveniently measured, e.g., by increasing luciferase production, which reflects compound-dependent, IR-mediated increases in reporter transcription. To detect antagonists, the co-transfection assay is carried out in the presence of a constant concentration of an agonist to the target IR (e.g., all-trans retinoic acid for RARα) known to induce a defined reporter signal. Increasing concentrations of a suspected antagonist will decrease the reporter signal (e.g., luciferase production). The co-transfection assay is therefore useful to detect both agonists and antagonists of specific IRs. Furthermore, it determines not only whether a compound interacts with a particular IR, but whether this interaction mimics (agonizes) or blocks (antagonizes) the effects of the native regulatory molecules on target gene expression, as well as the specificity and strength of this interaction.
CV-1 cells (African green monkey kidney fibroblasts) were cultured in the presence of Dulbecco's Modified Eagle Medium (DMEM) supplemented with 10% charcoal resin-stripped fetal bovine serum then transferred to 96-well microtiter plates one day prior to transfection. […]

[2] = molecular target: T2, RARβ (Homo sapiens, UniProt P10826); experiment: RAR binding, RARβ; conditions: Kd from IC50 by Cheng-Prussof equation
T2 sequence (P10826 1-448 isoform P10826-2): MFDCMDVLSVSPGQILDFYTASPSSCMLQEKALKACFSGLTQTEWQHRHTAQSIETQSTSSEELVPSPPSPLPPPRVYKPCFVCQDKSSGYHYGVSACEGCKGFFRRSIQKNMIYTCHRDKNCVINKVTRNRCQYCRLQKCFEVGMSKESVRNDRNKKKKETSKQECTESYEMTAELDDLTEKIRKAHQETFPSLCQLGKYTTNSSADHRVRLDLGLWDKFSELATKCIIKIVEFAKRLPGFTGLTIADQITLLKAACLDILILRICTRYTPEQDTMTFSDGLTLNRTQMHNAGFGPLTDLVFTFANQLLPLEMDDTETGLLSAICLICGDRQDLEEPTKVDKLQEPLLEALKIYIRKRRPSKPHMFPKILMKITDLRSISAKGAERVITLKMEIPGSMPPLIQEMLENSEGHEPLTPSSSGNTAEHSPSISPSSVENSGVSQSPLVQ
Experimental: Non-specific binding was defined as that binding remaining in the presence of 500 nM of the appropriate unlabelled compound. At the end of the incubation period, bound from free ligand were separated. The amount of bound tritiated retinoids was determined by liquid scintillation counting of an aliquot (700 μL) of the supernatant fluid or the hydroxylapatite pellet.
After correcting for non-specific binding, IC50 values were determined. […] The IC50 value was determined graphically from a log-logit plot of the data. The Kd values were determined by application of the Cheng-Prussof equation to the IC50 values, the labeled ligand concentration and the Kd of the labeled ligand.

SMILES | EC50 [1] [nM] | Kd [2] [nM]
CCCCOc1c(C(C)(C)C)cc(/C(C)=C/C=C/C(C)=C/C(=O)O)cc1C(C)(C)C [Compound 7, 2E, 4E, 6E-[7-(3,5-Di-t-butyl-4-n-butoxyphenyl)-3-methyl]-octa-2,4,6-trienoic acid] | > 10000 | 5
CCCOc1c(C(C)(C)C)cc(/C(C)=C/C=C/C(C)=C/C(=O)O)cc1C(C)(C)C [Compound 8, 2E, 4E, 6E-[7-(3,5-Di-t-butyl-4-n-propoxyphenyl)-3-methyl]-octa-2,4,6-trienoic acid] | > 10000 | 1
CCCCCOc1c(C(C)(C)C)cc(/C(C)=C/C=C/C(C)=C/C(=O)O)cc1C(C)(C)C [Compound 9, 2E, 4E, 6E-[7-(3,5-Di-t-butyl-4-n-pentoxyphenyl)-3-methyl]-octa-2,4,6-trienoic acid] | > 10000 | 5
C=C(c1ccccc1)c1cc(/C(C)=C/C=C/C(C)=C/C(=O)O)cc(C(C)(C)C)c1 [Compound 17, (2E,4E,6E)-7-[3-t-butyl-5-(1-phenyl-vinyl)-phenyl]-3-methyl-octa-2,4,6-trienoic acid] | > 10000 | 3
